We go through 18 compounds from patent US20140011799A1 (Bristol-Myers Squibb Company, priority 2012, published 2014).

Like-named read-outs stand apart in the source and are kept apart here.

One assay addresses T1, Endothelial lipase (EL) (Homo sapiens, UniProt Q9Y5X9).
T1 construct: HT-1080 cells that were transformed using RAGE technology (Athersys) to overexpress endogenous EL; endogenous in cells; conditioned medium used
T1 sequence (Q9Y5X9 21-500): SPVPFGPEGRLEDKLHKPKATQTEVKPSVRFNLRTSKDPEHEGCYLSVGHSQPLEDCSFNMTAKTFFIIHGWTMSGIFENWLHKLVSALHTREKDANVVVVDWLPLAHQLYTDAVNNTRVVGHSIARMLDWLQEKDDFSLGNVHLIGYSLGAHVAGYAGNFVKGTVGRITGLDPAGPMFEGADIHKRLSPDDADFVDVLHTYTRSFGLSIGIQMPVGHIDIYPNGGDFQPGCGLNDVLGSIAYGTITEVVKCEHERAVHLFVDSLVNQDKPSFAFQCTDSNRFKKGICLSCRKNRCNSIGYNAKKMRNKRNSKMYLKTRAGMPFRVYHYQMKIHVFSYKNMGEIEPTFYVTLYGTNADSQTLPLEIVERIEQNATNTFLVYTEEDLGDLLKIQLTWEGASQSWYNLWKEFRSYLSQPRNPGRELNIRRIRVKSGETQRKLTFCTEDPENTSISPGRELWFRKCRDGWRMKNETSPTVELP
In words: Endothelial lipase (EL) enzymatic assay, fluorescent substrate A10070 in DMPG vesicles. It counts as biochemical. The conditions noted are these: compound preincubated 30 min at 37° C. The method, boiled down:
(§1)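 EL from conditioned medium of HT-1080 cells engineered to overexpress endogenous EL; HL partially purified from conditioned medium of HL-overexpressing COS cells. Enzyme preincubated with compound 30 min at 37° C in 50 mM HEPES pH 8.0, 50 mM NaCl, 1 mM CaCl2; DMPG vesicles carrying FRET substrate (0.11 mole fraction) then added.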

A further assay has as its target T2, hepatic lipase (HL) (Homo sapiens, UniProt P11150).
T2 construct: made in house; host or cells: COS cells (conditioned medium, partially purified)
T2 sequence (P11150 23-499): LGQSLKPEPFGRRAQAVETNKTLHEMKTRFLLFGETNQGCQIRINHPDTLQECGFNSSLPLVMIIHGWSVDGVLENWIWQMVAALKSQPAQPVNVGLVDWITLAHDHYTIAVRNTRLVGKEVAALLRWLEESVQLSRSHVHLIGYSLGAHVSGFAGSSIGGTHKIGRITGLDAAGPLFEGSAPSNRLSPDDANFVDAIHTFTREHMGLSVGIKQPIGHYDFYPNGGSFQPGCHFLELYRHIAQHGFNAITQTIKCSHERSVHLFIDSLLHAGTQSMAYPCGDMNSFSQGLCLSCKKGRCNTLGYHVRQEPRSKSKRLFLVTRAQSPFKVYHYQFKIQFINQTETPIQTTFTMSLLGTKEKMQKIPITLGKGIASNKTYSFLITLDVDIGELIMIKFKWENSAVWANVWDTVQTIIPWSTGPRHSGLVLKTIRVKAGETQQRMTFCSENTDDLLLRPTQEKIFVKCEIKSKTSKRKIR
Kind of assay: Hepatic lipase (HL) enzymatic assay, fluorescent substrate A10070 in DMPG vesicles. It counts as biochemical. As to conditions: compound preincubated 30 min at 37° C. In short, it runs like this: as §1

Where [1] appears, read: EL from conditioned media of HT-1080 cells, read-out: EL IC50.
Where [2] appears, read: HL partially purified from conditioned media of COS cells, read-out: HL IC50.

Consider `NS(=O)(=O)NCc1nnc(C(c2nc3ccc(C(=O)N4CCOCC4)cc3s2)S(=O)(=O)Cc2ccccc2)o1` (stereo not drawn) [Example 189, N-((5-((Benzylsulfonyl)(6-(4-morpholinylcarbonyl)-1,3-benzothiazol-2-yl)methyl)-1,3,4-oxadiazol-2-yl)methyl)sulfamide], for which the values for the IC50 at Endothelial lipase (EL) (setting [1]) and at hepatic lipase (HL) (setting [2]) were 13 nM and 2370 nM, respectively.
With `CS(=O)(=O)C(c1nnc(CC2SC(=O)NC2=O)o1)c1nc2ccc(C#N)cc2s1` (stereo not drawn) [Example 190, 2-((5-((2,4-Dioxo-1,3-thiazolidin-5-yl)methyl)-1,3,4-oxadiazol-2-yl)(methylsulfonyl)methyl)-1,3-benzothiazole-6-carbonitrile], the IC50 at Endothelial lipase (EL) (setting [1]) is under 10 nM; on hepatic lipase (HL) (setting [2]) it was 418 nM.
For the compound `NS(=O)(=O)NCc1nnc(C(c2nc3ccc(-c4cccc(C(=O)O)c4)cc3s2)S(=O)(=O)CCC(F)(F)F)o1` (stereo not drawn) [Example 191, 3-(2-((5-((Sulfamoylamino)methyl)-1,3,4-oxadiazol-2-yl)((3,3,3-trifluoropropyl)sulfonyl)methyl)-1,3-benzothiazol-6-yl)benzoic acid], the results for the concentration for half-maximal inhibition (IC50) at Endothelial lipase (EL) (setting [1]) and at hepatic lipase (HL) (setting [2]) were 15 nM and 2670 nM, respectively.
`CC1(O)CN(C(=O)c2cccc(-c3ccc4nc(C(c5nnc(CNS(N)(=O)=O)o5)S(=O)(=O)CCC(F)(F)F)sc4c3)c2)C1` (stereo not drawn) [Example 192, N-((5-((6-(3-((3-Hydroxy-3-methyl-1-azetidinyl)carbonyl)phenyl)-1,3-benzothiazol-2-yl)((3,3,3-trifluoropropyl)sulfonyl)methyl)-1,3,4-oxadiazol-2-yl)methyl)sulfamide]: the IC50 on Endothelial lipase (EL) (setting [1]) is under 10 nM; on hepatic lipase (HL) (setting [2]), 81 nM.
With `CN1CCN(C(=O)c2cccc(-c3ccc4nc(C(c5nnc(CNS(N)(=O)=O)o5)S(C)(=O)=O)sc4c3)c2)CC1` (stereo not drawn) [Example 193, N-((5-((6-(3-((4-methyl-1-piperazinyl)carbonyl)phenyl)-1,3-benzothiazol-2-yl)(methylsulfonyl)methyl)-1,3,4-oxadiazol-2-yl)methyl)sulfamide], the half-maximal inhibitory concentration (IC50) on Endothelial lipase (EL) (setting [1]) is under 10 nM; on hepatic lipase (HL) (setting [2]), 105 nM.
For the compound `NS(=O)(=O)NCc1nnc(C(c2nc3ccc(-c4cccc(C(=O)N5CCC(=O)CC5)c4)cc3s2)S(=O)(=O)CCC(F)(F)F)o1` (stereo not drawn) [Example 194, N-((5-((6-(3-((4-oxo-1-piperidinyl)carbonyl)phenyl)-1,3-benzothiazol-2-yl)((3,3,3-trifluoropropyl)sulfonyl)methyl)-1,3,4-oxadiazol-2-yl)methyl) sulfamide], the IC50 at Endothelial lipase (EL) (EL IC50, EL from conditioned media of HT-1080 cells) was under 10 nM; against hepatic lipase (HL) (HL IC50, HL partially purified from conditioned media of COS cells), 171 nM.
As for `NS(=O)(=O)NCc1nnc(C(c2nc3ccc(-c4cccc(C(=O)NCC(F)(F)F)c4)cc3s2)S(=O)(=O)CCC(F)(F)F)o1` (stereo not drawn) [Example 195, 3-(2-((5-((sulfamoylamino)methyl)-1,3,4-oxadiazol-2-yl)((3,3,3-trifluoropropyl)sulfonyl)methyl)-1,3-benzothiazol-6-yl)-N-(2,2,2-trifluoroethyl)benzamide], the figures for the concentration for half-maximal inhibition (IC50) at Endothelial lipase (EL) (setting [1]) and on hepatic lipase (HL) (setting [2]) were under 10 nM and 336 nM, respectively.
The corresponding values for `NS(=O)(=O)NCc1nnc(C(c2nc3ccc(-c4cccc(C(=O)NCCO)c4)cc3s2)S(=O)(=O)CCC(F)(F)F)o1` (stereo not drawn) [Example 196, N-(2-hydroxyethyl)-3-(2-((5-((sulfamoylamino)methyl)-1,3,4-oxadiazol-2-yl)((3,3,3-trifluoropropyl)sulfonyl)methyl)-1,3-benzothiazol-6-yl)benzamide] are under 10 nM and 209 nM.
As for `CN1CCN(C(=O)c2cccc(-c3ccc4nc(C(c5nnc(CNS(N)(=O)=O)o5)S(=O)(=O)CC5CC5)sc4c3)c2)CC1` (stereo not drawn) [Example 197, N-((5-(((cyclopropylmethyl)sulfonyl)(6-(3-((4-methyl-1-piperazinyl)carbonyl)phenyl)-1,3-benzothiazol-2-yl)methyl)-1,3,4-oxadiazol-2-yl)methyl)sulfamide], the IC50 was under 10 nM on Endothelial lipase (EL) (setting [1]) and 2570 nM on hepatic lipase (HL) (setting [2]).
For the compound `CN1CCN(C(=O)c2cccc(-c3ccc4nc(C(c5nnc(CNS(N)(=O)=O)o5)S(=O)(=O)Cc5ccccc5)sc4c3)c2)CC1` (stereo not drawn) [Example 198, N-((5-((benzylsulfonyl)(6-(3-((4-methyl-1-piperazinyl)carbonyl)phenyl)-1,3-benzothiazol-2-yl)methyl)-1,3,4-oxadiazol-2-yl)methyl)sulfamide], the half-maximal inhibitory concentration (IC50) on Endothelial lipase (EL) (setting [1]) is under 10 nM; at hepatic lipase (HL) (setting [2]), 9180 nM.
The corresponding values for `COCCNC(=O)c1cccc(-c2ccc3nc(C(c4nnc(CNS(N)(=O)=O)o4)S(=O)(=O)CCC(F)(F)F)sc3c2)c1` (stereo not drawn) [Example 199, N-(2-methoxyethyl)-3-(2-((5-((sulfamoylamino)methyl)-1,3,4-oxadiazol-2-yl)((3,3,3-trifluoropropyl)sulfonyl)methyl)-1,3-benzothiazol-6-yl)benzamide] are under 10 nM and 1020 nM.
Consider `COCCS(=O)(=O)C(c1nnc(CNS(N)(=O)=O)o1)c1nc2ccc(-c3cccc(C(=O)N4CCN(C)CC4)c3)cc2s1` (stereo not drawn) [Example 200, N-((5-(((2-methoxyethyl)sulfonyl)(6-(3-((4-methyl-1-piperazinyl)carbonyl)phenyl)-1,3-benzothiazol-2-yl)methyl)-1,3,4-oxadiazol-2-yl)methyl)sulfamide], for which the IC50 was under 10 nM at Endothelial lipase (EL) (setting [1]) and 201 nM on hepatic lipase (HL) (setting [2]).
Regarding `CN1CCN(C(=O)c2cccc(-c3ccc4nc(C(c5nnc(CNS(N)(=O)=O)o5)S(=O)(=O)CCC(F)(F)F)sc4c3)c2)CC1` (stereo not drawn) [Example 201, N-((5-((6-(3-((4-methyl-1-piperazinyl)carbonyl)phenyl)-1,3-benzothiazol-2-yl)((3,3,3-trifluoropropyl)sulfonyl)methyl)-1,3,4-oxadiazol-2-yl)methyl)sulfamide], the half-inhibitory concentration (IC50) on Endothelial lipase (EL) (setting [1]) was under 10 nM; on hepatic lipase (HL) (setting [2]), 365 nM.
For `CS(=O)(=O)C(c1nnc(CNS(N)(=O)=O)o1)c1nc2ccc(-c3cccc(C(=O)N4CC(F)(F)C4)c3)cc2s1` (stereo not drawn) [Example 202, N-((5-((6-(3-((3,3-difluoro-1-azetidinyl)carbonyl)phenyl)-1,3-benzothiazol-2-yl)(methylsulfonyl)methyl)-1,3,4-oxadiazol-2-yl)methyl)sulfamide], in that order: under 10 nM and 35 nM.
The corresponding values for `CC(C)(C)OC(=O)c1cccc(-c2ccc3nc(C(c4nnc(CC5(C)NC(=O)NC5=O)o4)S(C)(=O)=O)sc3c2)c1` (stereo not drawn) [Example 203, tert-butyl 3-{2-[methanesulfonyl ({5-[(4-methyl-2,5-dioxoimidazolidin-4-yl)methyl]-1,3,4-oxadiazol-2-yl})methyl]-1,3-benzothiazol-6-yl}benzoate] are 33 nM and 2 nM.
On to `CC1(O)CN(C(=O)c2cccc(-c3ccc4nc(C(c5nnc(CC6(C)NC(=O)NC6=O)o5)S(C)(=O)=O)sc4c3)c2)C1` (stereo not drawn) [Example 204, 5-{[5-({6-[3-(3-hydroxy-3-methylazetidine-1-carbonyl)phenyl]-1,3-benzothiazol-2-yl} (methanesulfonyl)methyl)-1,3,4-oxadiazol-2-yl]methyl}-5-methyl-imidazolidine-2,4-dione], for which the IC50 at Endothelial lipase (EL) (setting [1]) came to 17 nM; at hepatic lipase (HL) (setting [2]), 783 nM.
For `COCCNC(=O)c1cccc(-c2ccc3nc(C(c4nnc(CC5(C)NC(=O)NC5=O)o4)S(C)(=O)=O)sc3c2)c1` (stereo not drawn) [Example 205, 3-{2-[methanesulfonyl({5-[(4-methyl-2,5-dioxoimidazolidin-4-yl)methyl]-1,3,4-oxadiazol-2-yl})methyl]-1,3-benzothiazol-6-yl}-N-(2-methoxyethyl)benzamide], in that order: 18 nM and 449 nM.
As for `CC1(Cc2nnc(C(c3nc4ccc(-c5cccc(C(=O)N6CC(F)C6)c5)cc4s3)S(C)(=O)=O)o2)NC(=O)NC1=O` (stereo not drawn) [Example 206, 5-{[5-({6-[3-(3-fluoroazetidine-1-carbonyl)phenyl]-1,3-benzothiazol-2-yl} (methanesulfonyl)methyl)-1,3,4-oxadiazol-2-yl]methyl}-5-methyl-imidazolidine-2,4-dione], the IC50 on Endothelial lipase (EL) (setting [1]) was found to be 16 nM; on hepatic lipase (HL) (setting [2]) it was 125 nM.

As a reminder, the IC50 is the concentration needed to halve the response being measured.
